The subject of one test is K562. The test is described as follows: Cytotoxicity against human K562 cells. It counts as functional.
Test [1] is described as follows: Cytotoxicity against human NCI60 cells. It counts as functional.
Another test relates to Escherichia coli. Put plainly: Induction of cross linking in DS pUC18 plasmid.

The values that follow come from ChEMBL document CHEMBL1143224, “An asymmetric C8/C8'-tripyrrole-linked sequence-selective pyrrolo[2,1-c][1,4]benzodiazepine (PBD) dimer DNA interstrand cross-linking agent spanning 11 DNA base pairs” (2008).

Each structure is given as a SMILES string.

Broadly, the GI50 is the concentration at which growth is held to half of that of the control. A higher GI50 goes with less potent growth inhibition. The term TGI denotes the concentration at which net growth stops. One may read the LC50 as the concentration lethal to half of the exposed cells or organisms.

With `C=C1C[C@H]2C=Nc3cc(OCCCOc4cc5c(cc4OC)C(=O)N4CC(=C)C[C@H]4C=N5)c(OC)cc3C(=O)N2C1` [SJG-136], the GI50 in the test on K562 turned out to be 8 nM; in test [1], 7 nM. In test [1], this compound showed a concentration for total growth inhibition (TGI) of 87 nM. For the same compound, the XL50 in the test on Escherichia coli stood at 0.06 µM.
In the test on K562, `COc1cc2c(cc1OCCCNC(=O)c1cc(NC(=O)c3cc(NC(=O)c4cc(NC(=O)CCCOc5cc6c(cc5OC)C(=O)N5CCC[C@H]5C=N6)cn4C)cn3C)cn1C)N=C[C@@H]1CCCN1C2=O` registered a 50% growth inhibitory concentration (GI50) of 37 nM. Moreover, in test [1], the GI50 worked out at 14 nM, the median lethal concentration (LC50) was found to be 22900 nM and the TGI amounted to 490 nM. The compound further displayed an XL50 in the test with Escherichia coli of 0.23 µM.
